# Assay results from PubChem BioAssay (NCI).
#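 Values below derive from 48-hour exposures of cells grown in 96-well plates, with endpoints linearly interpolated between the two concentrations bracketing the appropriate inhibition level. GI50 marks 50% less growth. TGI marks complete inhibition of growth.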
# Experiments:
# Experiment in all cases: NCI-60 cell line screen, 48 h
# [1] = tested on: UACC-62 melanoma
# [2] = tested on: ACHN renal
# [3] = tested on: U251 CNS
# [4] = tested on: RPMI-8226 leukemia
# [5] = tested on: NCI/ADR-RES ovarian
# [6] = tested on: KM12 colon
# [7] = tested on: SK-MEL-28 melanoma
# [8] = tested on: SK-MEL-5 melanoma
# [9] = tested on: NCI-H460 lung
# [10] = tested on: UO-31 renal
# [11] = tested on: NCI-H226 lung
# [12] = tested on: SNB-75 CNS
# [13] = tested on: COLO 205 colon
# [14] = tested on: OVCAR-8 ovarian
# [15] = tested on: HCC-2998 colon
# [16] = tested on: HCT-15 colon
# [17] = tested on: 786-0 renal
# [18] = tested on: HT29 colon
# [19] = tested on: OVCAR-5 ovarian
# [20] = tested on: M14 melanoma
# [21] = tested on: MDA-MB-231 breast
# [22] = tested on: MALME-3M melanoma
# [23] = tested on: EKVX NSCLC
# [24] = tested on: MOLT-4 leukemia
# [25] = tested on: UACC-257 melanoma
# [26] = tested on: IGROV1 ovarian
# [27] = tested on: NCI-H23 lung
# [28] = tested on: RXF 393 renal
# [29] = tested on: SF-539 CNS
smiles,measurement,setting,value
COc1cccc(NC2=C(Cl)C(=O)N(Cc3ccc(Cl)cc3)C2=O)c1,GI50,[1],1.97 µM
same,TGI,[1],18.3 µM
same,GI50,[2],6.43 µM
same,TGI,[2],49.2 µM
same,GI50,[3],1.24 µM
same,TGI,[3],> 34.6 µM
same,GI50,[4],0.985 µM
same,TGI,[4],> 20.3 µM
same,GI50,[5],1.22 µM
same,TGI,[5],5.39 µM
same,GI50,[6],2.34 µM
same,TGI,[6],30.5 µM
same,GI50,[7],8.37 µM
same,TGI,[7],36.3 µM
same,GI50,[8],1.21 µM
same,TGI,[8],6.09 µM
same,GI50,[9],2.93 µM
same,TGI,[9],18.5 µM
same,GI50,[10],7.88 µM
same,TGI,[10],31.7 µM
same,GI50,[11],1.27 µM
same,TGI,[11],6.86 µM
same,GI50,[12],3.22 µM
same,TGI,[12],> 100 µM
same,GI50,[13],4.96 µM
same,TGI,[13],39.8 µM
same,GI50,[14],1.82 µM
same,TGI,[14],> 43.1 µM
same,GI50,[15],2.64 µM
same,TGI,[15],12.7 µM
same,GI50,[16],1.05 µM
same,TGI,[16],8.62 µM
same,GI50,[17],1.54 µM
same,TGI,[17],8.39 µM
same,GI50,[18],2.72 µM
same,TGI,[18],> 100 µM
same,GI50,[19],10 µM
same,TGI,[19],43.2 µM
same,GI50,[20],1.66 µM
same,TGI,[20],7.71 µM
same,GI50,[21],2.15 µM
same,GI50,[22],1.17 µM
same,TGI,[22],14.1 µM
same,GI50,[23],12.5 µM
same,TGI,[23],38.8 µM
same,GI50,[24],1.36 µM
same,TGI,[24],> 100 µM
same,GI50,[25],3.12 µM
same,TGI,[25],30.3 µM
same,GI50,[26],11.9 µM
same,TGI,[26],> 37.4 µM
same,GI50,[27],2.84 µM
same,TGI,[27],9.81 µM
same,GI50,[28],0.788 µM
same,TGI,[28],6.26 µM
same,GI50,[29],1.73 µM
same,TGI,[29],5.7 µM
